The values below come from patent publication US20240124444A1 (Celgene Corporation, priority 2020, published 2024).

The test system of the experiment is C. parvum strain UGA1. Put plainly: C. parvum growth inhibition assay (Nluc luminescence in HCT-8 cells). It counts as cell-based, Cryptosporidium parvum. Particulars: Cryptosporidium parvum; for inhibition at 1 µM / inhibition at 10 µM: HCT-8; for inhibition at 1 µM: read-out: % inh @ 1 uM C. parvum; for inhibition at 10 µM: read-out: % inh @ 10 uM C. parvum; for EC50: HCT-8, 48 h, C. parvum growth inhibition in HCT-8 cells, 48 hours, 6 concentrations 10-0.04 μM. On the procedure: C. parvum GROWTH INHIBITION ASSAYS
C. parvum growth inhibition was performed as described in Hulverson M A, Vinayak S, Choi R, Schaefer D A, Castellanos-Gonzalez A, Vidadala R S R, Brooks C F, Herbert G T, Betzer D P, Whitman G R, Sparks H N, Arnold S L M, Rivas K L, Barrett L K, White A C Jr, Maly D J, Riggs M W, Striepen B, Van Voorhis W C, Ojo K K. Bumped-Kinase Inhibitors for Cryptosporidiosis Therapy. J Infect Dis. 2017 Apr. 15; 215(8):1275-1284.
C. parvum strain UGA1 […] (ATCC, Manassas, VA) were prepared as described below. HCT-8 cells were inoculated onto 96-well plates were grown for 48 hours to 90%-100% confluence. C. parvum oocysts were then incubated for 10 minutes in 10% bleach at room temperature and washed with Dulbecco's phosphate-buffered saline. One thousand oocysts per well were applied to plates with Roswell Park Memorial Institute 1640 (RPMI) medium supplemented with 10% horse serum and 1% penicillin/streptomycin. Compounds of Formula (I), Formula (II), and Formula (III) were added to the plates at different concentrations and the plates were incubated for 48 hours. Following the incubation, the monolayers were lysed for 1 hour before a luciferase reagent was added, and relative luminescence units were determined.
For certain compounds of Formula I, Formula II, and Formula III, EC50 values were calculated using curves calculated from Prism after analysis of C. parvum growth inhibition at 6 different concentrations: 10, 3.33, 1.11, 0.37, 0.12, and 0.04 μM. […] For certain compounds of Formula I, Formula II, and Formula III, single point inhibition values of 0-33% (activity level D), between 33% and 66% (activity level E), and between 67% and 100% (activity level F) are also shown in Table 1 below.

[1] abbreviates: single point inhibition at 1 uM.
The mark [2] stands for this setting: single point inhibition at 10 uM.
[3] abbreviates: single point inhibition @ 10 uM.

Each structure is given as a SMILES string. Where two headings read alike, the source gives them in different places. Bounds are passed on as bounds.

For the compound `CCOc1nccc(-c2cc3cnc(NC(=O)[C@H]4C[C@H](O)C4)cc3[nH]2)n1` [Example 253, (1r,3r)-N-(2-(2-ethoxypyrimidin-4-yl)-1H-pyrrolo[3,2-c]pyridin-6-yl)-3-hydroxycyclobutanecarboxamide], the inhibition at 1 µM under setting [1] lay within 0 to 33%. Moreover, the inhibition at 10 µM under setting [2] is 0 to 33%. A word on the EC50: it is the concentration needed to bring the measured effect to its halfway point. The low end stands for greater potency, the high end for weaker potency. In turn, `Cn1c(-c2cnco2)cc2cnc(NC(=O)C3CC3)cc21` [Example 74, N-(1-methyl-2-(oxazol-5-yl)-1H-pyrrolo[3,2-c]pyridin-6-y)cyclopropanecarboxamide] showed an EC50 of over 1 µM. Consider `CC(C)c1nccc(-c2cc3cnc(NC4CCOCC4)cc3n2C)n1` [Example 391, 2-(2-isopropylpyrimidin-4-yl)-1-methyl-N-(tetrahydro-2H-pyran-4-yl)-1H-pyrrolo[3,2-c]pyridin-6-amine], for which the EC50 is over 1 µM. For `Cc1cc(-c2cc3cnc(NC(=O)C(C)C)cc3[nH]2)ccn1` [Example 160, N-(2-(2-methylpyridin-4-yl)-1H-pyrrolo[3,2-c]pyridin-6-yl)isobutyramide], the inhibition at 1 µM (single point inhibition @ 1 uM) is 0 to 33%. Under setting [3], the inhibition at 10 µM is 67 to 100%. `CCCOc1nccc(-c2cc3cnc(NC(=O)c4cnn(C)c4)cc3[nH]2)n1` [Example 312, 1-methyl-N-(2-(2-propoxypyrimidin-4-yl)-1H-pyrrolo[3,2-c]pyridin-6-yl)-1H-pyrazole-4-carboxamide]: the inhibition at 1 µM under setting [1] is 0 to 33%. Also, the inhibition at 10 µM under setting [2] is 0 to 33%. `O=C(Nc1cc2[nH]c(C(F)(F)F)cc2cn1)C1CCOCC1` [Example 105, N-(2-(trifluoromethyl)-1H-pyrrolo[3,2-c]pyridin-6-yl)tetrahydro-2H-pyran-4-carboxamide] displayed an EC50 of over 1 µM. `Cc1c(C(=O)Nc2cc3[nH]c(-c4ccncc4)cc3cn2)cnn1C` [Example 166, 1,5-dimethyl-N-(2-(pyridin-4-yl)-1H-pyrrolo[3,2-c]pyridin-6-yl)-1H-pyrazole-4-carboxamide]: under “single point inhibition @ 1 uM”, the inhibition at 1 µM lay within 0 to 33%. Besides, under setting [3], the inhibition at 10 µM lay within 67 to 100%. `COc1nccc(-c2cc3cnc(NC(=O)[C@H]4C[C@H](O)C4)cc3[nH]2)n1` [Example 63, (1r,3r)-3-hydroxy-N-(2-(2-methoxypyrimidin-4-yl)-1H-pyrrolo[3,2-c]pyridin-6-yl)cyclobutanecarboxamide] had an EC50 of over 1 µM. Moreover, the inhibition at 1 µM (single point inhibition @ 1 uM) is 0 to 33%. Also, the inhibition at 10 µM under setting [3] is 67 to 100%.

Regarding `Cn1cc(C(=O)Nc2cc3[nH]c(-c4cccnc4)cc3cn2)cn1` [Example 332, 1-methyl-N-(2-(pyridin-3-yl)-1H-pyrrolo[3,2-c]pyridin-6-yl)-1H-pyrazole-4-carboxamide], the inhibition at 1 µM under setting [1] is 0 to 33%. Moreover, the inhibition at 10 µM under setting [2] was 0 to 33%. Regarding `O=C(Nc1cc2[nH]c(-c3nc[nH]n3)cc2cn1)C1CC1` [Example 201, N-(2-(1H-1,2,4-triazol-3-yl)-1H-pyrrolo[3,2-c]pyridin-6-yl)cyclopropanecarboxamide], the inhibition at 1 µM under setting [1] is 0 to 33%. Besides, the inhibition at 10 µM under setting [2] lay within 67 to 100%. Take `Cc1cc(-c2cc3cnc(NC4CCOC4)cc3[nH]2)ccn1` (stereo in doubt) [Example 52, (S)-2-(2-methylpyridin-4-yl)-N-(tetrahydrofuran-3-yl)-1H-pyrrolo[3,2-c]pyridin-6-amine]: the EC50 was over 1 µM. For the compound `Cc1cc(-c2cc3cnc(NC(=O)CC4COC4)cc3[nH]2)ccn1` [Example 165, N-(2-(2-methylpyridin-4-yl)-1H-pyrrolo[3,2-c]pyridin-6-yl)-2-(oxetan-3-yl)acetamide], where the note is “single point inhibition @ 1 uM”, the inhibition at 1 µM was in the range of 0 to 33%. The inhibition at 10 µM under setting [3] lay within 67 to 100%.

On to `Cn1c(-c2cc(C(F)(F)F)ncn2)cc2cnc(NC(=O)C3CC3)cc21` [Example 130, N-(1-methyl-2-(6-(trifluoromethyl)pyrimidin-4-yl)-1H-pyrrolo[3,2-c]pyridin-6-yl)cyclopropanecarboxamide], for which the EC50 was over 1 µM. Compound `Cn1cnc(-c2cc3cnc(NC(=O)C4CC4)cc3[nH]2)c1` [Example 60, N-(2-(1-methyl-1H-imidazol-4-yl)-1H-pyrrolo[3,2-c]pyridin-6-yl)cyclopropanecarboxamide] registered an EC50 of over 1 µM. `Cn1c(-c2ccnc(NCC(F)(F)F)n2)cc2cnc(NC3CCCOC3)cc21` (stereo in doubt) [Example 379, (S)-1-methyl-N-(tetrahydro-2H-pyran-3-yl)-2-(2-(2,2,2-trifluoroethylamino)pyrimidin-4-yl)-1H-pyrrolo[3,2-c]pyridin-6-amine]: the EC50 is over 1 µM. As for `Cn1cc(C(=O)Nc2cc3[nH]c(C(F)(F)F)cc3cn2)cn1` [Example 341, 1-methyl-N-(2-(tirfluoromethyl)-1H-pyrrolo[3,2-c]pyridin-6-yl)-1H-pyrazole-4-carboxamide], the inhibition at 1 µM under setting [1] was 0 to 33%. Under setting [2], the inhibition at 10 µM was in the range of 0 to 33%. On to `c1ncc(-c2cc3cnc(Nc4cnn(C5CCOCC5)c4)cc3[nH]2)o1` [Example 147, 2-(oxazol-5-yl)-N-(1-(tetrahydro-2H-pyran-4-yl)-1H-pyrazol-4-yl)-1H-pyrrolo[3,2-c]pyridin-6-amine], for which the inhibition at 1 µM (single point inhibition @ 1 uM) is 0 to 33%. The inhibition at 10 µM under setting [3] lay within 67 to 100%. In the case of `COC1CCC(OC(=O)Nc2cc3[nH]c(-c4ccnc(C)c4)cc3cn2)CC1` (stereo not drawn) [Example 206, 4-methoxycyclohexyl 2-(2-methylpyridin-4-yl)-1H-pyrrolo[3,2-c]pyridin-6-ylcarbamate], the inhibition at 1 µM under setting [1] was in the range of 0 to 33%. For the same compound, the inhibition at 10 µM under setting [2] lay within 67 to 100%. For the compound `Cn1cc(-c2cc3cnc(Nc4ccccc4)cc3n2C)cn1` [Example 70, 1-methyl-2-(1-methyl-1H-pyrazol-4-yl)-N-phenyl-1H-pyrrolo[3,2-c]pyridin-6-amine], the EC50 is over 1 µM. Where the note is “single point inhibition @ 1 uM”, the inhibition at 1 µM was 33 to 66%. Further, the inhibition at 10 µM under setting [3] lay in the range of 67 to 100%. Compound `Cn1cnc(-c2cc3cnc(NC(=O)C4CC4)cc3n2C)c1` [Example 342, N-(1-methyl-2-(1-methyl-1H-imidazol-4-yl)-1H-pyrrolo[3,2-c]pyridin-6-yl)cyclopropanecarboxamide] returned a concentration for a half-maximal effect (EC50) of over 1 µM. For the compound `COc1nccc(-c2cc3cnc(NC(=O)CC4COC4)cc3[nH]2)n1` [Example 227, N-(2-(2-methoxypyrimidin-4-yl)-1H-pyrrolo[3,2-c]pyridin-6-yl)-2-(oxetan-3-yl)acetamide], the inhibition at 1 µM under setting [1] fell in the range of 0 to 33%. Further, the inhibition at 10 µM under setting [2] was 33 to 66%.

`COc1nccc(-c2cc3cnc(NC(=O)c4ccc(OC5CCOCC5)cc4)cc3n2C)n1` [Example 188, N-(2-(2-methoxypyrimidin-4-yl)-1-methyl-1H-pyrrolo[3,2-c]pyridin-6-yl)-4-(tetrahydro-2H-pyran-4-yloxy)benzamide]: the inhibition at 1 µM (single point inhibition @ 1 uM) fell in the range of 0 to 33%. For the same compound, under setting [3], the inhibition at 10 µM is 67 to 100%. `Cc1ncc(-c2cc3cnc(NC(=O)C4CC4)cc3[nH]2)s1` [Example 101, N-(2-(2-methylthiazol-5-yl)-1H-pyrrolo[3,2-c]pyridin-6-yl)cyclopropanecarboxamide] returned an EC50 of over 1 µM.

`COc1nccc(-c2cc3cnc(NC(=O)[C@H]4C[C@@H](O)C4)cc3[nH]2)n1` [Example 167, (1s,3s)-3-hydroxy-N-(2-(2-methoxypyrimidin-4-yl)-1H-pyrrolo[3,2-c]pyridin-6-yl)cyclobutanecarboxamide]: the inhibition at 1 µM (single point inhibition @ 1 uM) lay within 33 to 66%. Besides, the inhibition at 10 µM under setting [3] lay in the range of 67 to 100%. Compound `CN(CC(F)(F)F)c1cc(-c2cc3cnc(NC4CCOCC4)cc3[nH]2)ncn1` [Example 394, 2-(6-(methyl(2,2,2-trifluoroethyl)amino)pyrimidin-4-yl)-N-(tetrahydro-2H-pyran-4-yl)-1H-pyrrolo[3,2-c]pyridin-6-amine] returned an EC50 of over 1 µM. For `Cc1cc(-c2cc3cnc(NC(=O)C4CC4)cc3[nH]2)ccc1F` [Example 340, N-(2-(4-fluoro-3-methylphenyl)-1H-pyrrolo[3,2-c]pyridin-6-yl)cyclopropanecarboxamide], the inhibition at 1 µM under setting [1] was 0 to 33%. Under setting [2], the inhibition at 10 µM fell in the range of 0 to 33%.

Take `Cn1cncc1-c1cc2cnc(Nc3ccc(F)cc3)cc2[nH]1` [Example 229, N-(4-fluorophenyl)-2-(1-methyl-1H-imidazol-5-yl)-1H-pyrrolo[3,2-c]pyridin-6-amine]: under setting [1], the inhibition at 1 µM is 33 to 66%. Moreover, the inhibition at 10 µM under setting [2] is 33 to 66%. As for `COc1nccc(-c2cc3cnc(NC(=O)[C@H]4C[C@@H](O)C4)cc3n2C)n1` [Example 163, (1s,3s)-3-hydroxy-N-(2-(2-methoxypyrimidin-4-yl)-1-methyl-1H-pyrrolo[3,2-c]pyridin-6-yl)cyclobutanecarboxamide], the inhibition at 1 µM (single point inhibition @ 1 uM) was in the range of 0 to 33%. Also, under setting [3], the inhibition at 10 µM is 67 to 100%.
